Read-outs that look alike come from different tables or passages of the source.
Tested on: recombinant NL-Rluc virus
Assay: Inhibition of HIV replication (NL-RLuc luciferase reporter virus, MT-2 cells)
Format: cell-based
Conditions: Human immunodeficiency virus 1, MT2, 120 h

Row | Structure (SMILES) | EC50 (read-out: Activity) [µM] | EC50 (read-out: EC50 μM) [µM]
1 | Cc1nc2cc(C(=O)Nc3cc(-c4ccccc4)nn3C)nn2c(-c2cc(F)c3c(c2C)CCCO3)c1[C@H](OC(C)(C)C)C(=O)O [Example 84, (2S)-2-(tert-butoxy)-2-(7-(8-fluoro-5-methylchroman-6-yl)-5-methyl-2-((1-methyl-3-phenyl-1H-pyrazol-5-yl)carbamoyl)pyrazolo[1,5-a]pyrimidin-6-yl)acetic acid] | < 0.1 | –
2 | Cc1nc2cc(C(=O)NCc3ccccn3)nn2c(-c2cc(F)c3c(c2C)CCCO3)c1[C@H](OC(C)(C)C)C(=O)O [Example 104, (2S)-2-(tert-butoxy)-2-(7-(8-fluoro-5-methylchroman-6-yl)-5-methyl-2-((pyridin-2-ylmethyl)carbamoyl)pyrazolo[1,5-a]pyrimidin-6-yl)acetic acid] | > 1 | –
3 | Cc1nc2cc(C(=O)N3CCN(c4ccc(Cl)cc4)CC3)nn2c(-c2cc(F)c3c(c2C)CCCO3)c1[C@H](OC(C)(C)C)C(=O)O [Example 116, (2S)-2-(tert-butoxy)-2-(2-(4-(4-chlorophenyl)piperazine-1-carbonyl)-7-(8-fluoro-5-methylchroman-6-yl)-5-methylpyrazolo[1,5-a]pyrimidin-6-yl)acetic acid] | < 0.1 | –
4 | Cc1nc2cc(C(=O)N3CCC(c4ccc(F)cc4)CC3)nn2c(-c2cc(F)c3c(c2C)CCCO3)c1[C@H](OC(C)(C)C)C(=O)O (atropisomer, axis not shown) [Example 138, (S)-2-(tert-Butoxy)-2-((S)-7-(8-fluoro-5-methylchroman-6-yl)-2-(4-(4-fluorophenyl)piperidine-1-carbonyl)-5-methylpyrazolo[1,5-a]pyrimidin-6-yl)acetic acid] | < 0.1 | –
5 | Cc1nc2cc(C(=O)NCCc3ccc(Cl)cc3)nn2c(-c2cc(F)c3c(c2C)CCCO3)c1[C@H](OC(C)(C)C)C(=O)O [Example 112, (2S)-2-(tert-butoxy)-2-(2-((4-chlorophenethyl)carbamoyl)-7-(8-fluoro-5-methylchroman-6-yl)-5-methylpyrazolo[1,5-a]pyrimidin-6-yl)acetic acid] | < 0.1 | –
6 | Cc1nc2cc(C(=O)NCc3ccc(-c4ccccc4)cc3)nn2c(-c2cc(F)c3c(c2C)CCCO3)c1[C@H](OC(C)(C)C)C(=O)O [Example 70, (2S)-2-(2-(([1,1′-biphenyl]-4-ylmethyl)carbamoyl)-7-(8-fluoro-5-methylchroman-6-yl)-5-methylpyrazolo[1,5-a]pyrimidin-6-yl)-2-(tert-butoxy)acetic acid] | < 0.1 | –
7 | Cc1nc2cc(C(=O)N3CCC(CCO)CC3)nn2c(-c2cc(F)c3c(c2C)CCCO3)c1[C@H](OC(C)(C)C)C(=O)O [Example 106, (2S)-2-(tert-butoxy)-2-(7-(8-fluoro-5-methylchroman-6-yl)-2-(4-(2-hydroxyethyl)piperidine-1-carbonyl)-5-methylpyrazolo[1,5-a]pyrimidin-6-yl)acetic acid] | > 1 | –
8 | CCCOCCNC(=O)c1cc2nc(C)c([C@H](OC(C)(C)C)C(=O)O)c(-c3cc(F)c4c(c3C)CCCO4)n2n1 [Example 133, (2S)-2-(tert-butoxy)-2-(7-(8-fluoro-5-methylchroman-6-yl)-5-methyl-2-((2-propoxyethyl)carbamoyl)pyrazolo[1,5-a]pyrimidin-6-yl)acetic acid] | 0.1 to 1 | 0.185
9 | Cc1cc(CNC(=O)c2nn3c(-c4cc(F)c5c(c4C)CCCO5)c([C@H](OC(C)(C)C)C(=O)O)c(C)nc3c2Cl)ccc1F [Example 140, (2S)-2-(tert-Butoxy)-2-(3-chloro-2-((4-fluoro-3-methylbenzyl)carbamoyl)-7-(8-fluoro-5-methylchroman-6-yl)-5-methylpyrazolo[1,5-a]pyrimidin-6-yl)acetic acid] | < 0.1 | –
10 | Cc1nc2cc(C(=O)Nc3ccccc3)nn2c(-c2cc(F)c3c(c2C)CCCO3)c1[C@H](OC(C)(C)C)C(=O)O [Example 123, (2S)-2-(tert-butoxy)-2-(7-(8-fluoro-5-methylchroman-6-yl)-5-methyl-2-(phenylcarbamoyl)pyrazolo[1,5-a]pyrimidin-6-yl)acetic acid] | < 0.1 | –
11 | Cc1nc2cc(C(=O)NCCC(C)(C)C)nn2c(-c2cc3c(cc2F)OCCN3)c1[C@H](OC(C)(C)C)C(=O)O [Example 146, (2S)-2-(tert-Butoxy)-2-(2-((3,3-dimethylbutyl)carbamoyl)-7-(7-fluoro-3,4-dihydro-2H-benzo[b][1,4]oxazin-6-yl)-5-methylpyrazolo[1,5-a]pyrimidin-6-yl)acetic acid] | < 0.1 | –
12 | Cc1nc2cc(C(=O)NCCSC(C)(C)C)nn2c(-c2cc(F)c3c(c2C)CCCO3)c1[C@H](OC(C)(C)C)C(=O)O [Example 136, (2S)-2-(tert-butoxy)-2-(2-((2-(tert-butylthio)ethyl)carbamoyl)-7-(8-fluoro-5-methylchroman-6-yl)-5-methylpyrazolo[1,5-a]pyrimidin-6-yl)acetic acid] | < 0.1 | –
13 | CCc1cc(CNC(=O)c2cc3nc(C)c([C@H](OC(C)(C)C)C(=O)O)c(-c4cc(F)c5c(c4C)CCCO5)n3n2)ccc1F [Example 24, (2S)-2-(tert-butoxy)-2-(2-((3-ethyl-4-fluorobenzyl)carbamoyl)-7-(8-fluoro-5-methylchroman-6-yl)-5-methylpyrazolo[1,5-a]pyrimidin-6-yl)acetic acid] | < 0.1 | –
14 | Cc1ccc(CN(C)C(=O)c2cc3nc(C)c([C@H](OC(C)(C)C)C(=O)O)c(-c4cc(F)c5c(c4C)CCCO5)n3n2)cc1 [Example 32, (2S)-2-(tert-butoxy)-2-(7-(8-fluoro-5-methylchroman-6-yl)-5-methyl-2-(methyl(4-methylbenzyl)carbamoyl)pyrazolo[1,5-a]pyrimidin-6-yl)acetic acid] | < 0.1 | –
15 | Cc1nc2cc(C(=O)NCCc3ccccc3)nn2c(-c2cc(F)c3c(c2C)CCCO3)c1[C@H](OC(C)(C)C)C(=O)O [Example 48, (2S)-2-(tert-butoxy)-2-(7-(8-fluoro-5-methylchroman-6-yl)-5-methyl-2-(phenethylcarbamoyl)pyrazolo[1,5-a]pyrimidin-6-yl)acetic acid] | < 0.1 | –
16 | Cc1nc2cc(C(=O)NCCc3cccc(Cl)c3)nn2c(-c2cc(F)c3c(c2C)CCCO3)c1[C@H](OC(C)(C)C)C(=O)O [Example 81, (2S)-2-(tert-butoxy)-2-(2-((3-chlorophenethyl)carbamoyl)-7-(8-fluoro-5-methylchroman-6-yl)-5-methylpyrazolo[1,5-a]pyrimidin-6-yl)acetic acid] | < 0.1 | –
17 | Cc1nc2cc(C(=O)N3CCC(c4ccccc4)CC3)nn2c(-c2cc(F)c3c(c2C)CCCO3)c1[C@H](OC(C)(C)C)C(=O)O [Example 78, (2S)-2-(tert-butoxy)-2-(7-(8-fluoro-5-methylchroman-6-yl)-5-methyl-2-(4-phenylpiperidine-1-carbonyl)pyrazolo[1,5-a]pyrimidin-6-yl)acetic acid] | < 0.1 | –
18 | Cc1cccc(CN(C)C(=O)c2cc3nc(C)c([C@H](OC(C)(C)C)C(=O)O)c(-c4cc(F)c5c(c4C)CCCO5)n3n2)c1 [Example 20, (2S)-2-(tert-butoxy)-2-(7-(8-fluoro-5-methylchroman-6-yl)-5-methyl-2-(methyl(3-methylbenzyl)carbamoyl)pyrazolo[1,5-a]pyrimidin-6-yl)acetic acid] | < 0.1 | –

— patent US8791108B2, “Inhibitors of human immunodeficiency virus replication” (priority 2011, dated 2014)
